Counter-ions that a name gives are not always drawn.
Key:
human RIOK2 protein = biological target: T1, human RIOK2 protein (Homo sapiens, UniProt Q9BVS4); assay: RIOK2 autophosphorylation ELISA (Test Example 4); format: biochemical; details: for inhibition at 1 µM: read-out: Inhibitory activity at 1 μM (%); for inhibition at 10 µM: read-out: Inhibitory activity at 10 μM (%)
T1 construct: glutathione S-transferase is fused to N-terminal of a full-length human RIOK2 protein; GST (glutathione S-transferase) (N); purchased CarnaBio, Inc; host or cells: baculovirus-Sf21 cell expression system
Method: A protein in which glutathione S-transferase is fused to N-terminal of a full-length human RIOK2 protein was used as a recombinant human RIOK2 protein. The protein was prepared using a baculovirus-Sf21 cell expression system from CarnaBio, Inc. A kinase reaction solution was prepared by mixing 25 μg/mL of the recombinant human RIOK2 protein and 100 μM of ATP in 20 μl of kinase reaction buffer (50 mM Tris-HCl, 10 mM MgCl2, 10 mM MnCl2, 1 mM DTT, 0.01% Brij, 1× PhosSTOP (manufactured by Roche Applied Science)), and was incubated at a temperature of 30° C. for 1 hour. After adding 30 μl of 40 mM EDTA solution to this kinase reaction solution, the kinase reaction solution was transferred to a MaxiSorp 96 well plate (manufactured by Nunc). Thereafter, phosphorylated human RIOK2 protein was allowed to adsorb onto the wells by leaving the plate in a refrigerator overnight.
The following day, the supernatant was removed, and the wells were washed three times with ELISA buffer (20 mM Tris-HCl, 150 mM NaCl, 0.2% Tween-20, 0.1% BSA). Thereafter, 100 μl of Blocking-One P (product name; manufactured by Nacalai Tesque, Inc.) was applied to the wells, and a blocking treatment was performed for 1 hour at room temperature. […] After further washing the wells, a secondary antibody, anti-rabbit IgG conjugated with horseradish peroxidase (manufactured by Jackson ImmunoResearch; 1/4000 ELISA buffer-diluted solution), was applied to the wells, and incubation was performed for 30 minutes at room temperature. After washing the wells once again, 50 μl of tetramethyl benzidine (TMB) aqueous solution (manufactured by Nacalai Tesque, Inc.) was applied to the wells, and a coloring reaction was performed for 30 minutes at room temperature. Thereafter, the coloring reaction was stopped by adding 50 μl of 2M H2SO4 to the wells. An absorptiometric level of 450 nm was measured in each well using ARVO SX (manufactured by Wallac).

FaDu CSC = assay: Cancer stem cells, Cell Titer-Glo 72 hours (Test Example 3); format: cell-based; details: Homo sapiens, FaDu, 72 h
A549 CSC = assay: as above; format: cell-based; details: Homo sapiens
ACHN = assay: Bulk cancer cells, Cell Titer-Glo 72 hours (Test Example 2); format: cell-based; details: Homo sapiens, ACHN, 72 h
Method: (§1) Tubes of 3× drug (60 uM in 500 uL complete media) were prepared from 5 mM stock solutions in DMSO. […] To treat cells, 50 uL of drug from the dilution plate was removed and added to the cell plates. […] Cells were harvested 72 hours after drug addition using Cell Titer-Glo (Promega) and luminescence measured on a plate reader.

A549 = assay: as above; format: cell-based; details: Homo sapiens
Method: as §1

FaDu = assay: as above; format: cell-based; details: Homo sapiens
Method: as §1

ACHN CSC = assay: Cancer stem cells, Cell Titer-Glo 72 hours (Test Example 3); format: cell-based; details: Homo sapiens, ACHN, 72 h

T1 sequence (Q9BVS4 whole entry, the tested form may be a part): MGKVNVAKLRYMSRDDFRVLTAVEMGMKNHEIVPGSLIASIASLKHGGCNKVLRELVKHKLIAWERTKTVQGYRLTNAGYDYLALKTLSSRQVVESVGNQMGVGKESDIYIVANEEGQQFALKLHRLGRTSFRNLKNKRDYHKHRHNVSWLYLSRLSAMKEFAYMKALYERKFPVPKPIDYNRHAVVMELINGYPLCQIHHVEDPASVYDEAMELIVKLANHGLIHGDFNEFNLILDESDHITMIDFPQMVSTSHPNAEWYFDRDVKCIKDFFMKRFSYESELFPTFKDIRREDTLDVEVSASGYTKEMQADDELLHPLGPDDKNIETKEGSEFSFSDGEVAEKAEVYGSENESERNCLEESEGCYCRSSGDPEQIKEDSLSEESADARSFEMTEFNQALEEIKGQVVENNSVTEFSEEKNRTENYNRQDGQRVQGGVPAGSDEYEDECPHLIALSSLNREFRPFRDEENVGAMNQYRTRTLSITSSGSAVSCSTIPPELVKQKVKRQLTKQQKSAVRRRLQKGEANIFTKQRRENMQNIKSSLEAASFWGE

| Structure (SMILES) | inhibition at 1 µM (human RIOK2 protein) | inhibition at 10 µM (human RIOK2 protein) | IC50 (FaDu CSC) | IC50 (A549 CSC) | IC50 (ACHN) | IC50 (A549) | IC50 (FaDu) | IC50 (ACHN CSC) |
| --- | --- | --- | --- | --- | --- | --- | --- | --- |
| CCN(CC)CCNC(=O)c1c(C)[nH]c(/C=C2\C(=O)Nc3ccc(-c4ccnn4-c4ccccc4F)cc32)c1C [Example 58] | 56% | 116% |  |  |  |  |  |  |
| CCN(CC)CCNC(=O)c1c(C)[nH]c(/C=C2\C(=O)Nc3ccc(-c4ccnn4-c4ccc(OC)cc4)cc32)c1C [Example 59] | 34% | 106% |  |  |  |  |  |  |
| CCN(CC)CCNC(=O)c1c(C)[nH]c(/C=C2\C(=O)Nc3ccc(-c4ccnn4-c4ccc(C(F)(F)F)cc4)cc32)c1C [Example 60] | 9% | 68% |  |  |  |  |  |  |
| CCN(CC)CCNC(=O)c1c(C)[nH]c(/C=C2\C(=O)Nc3ccc(-c4ccnn4-c4cccc(C)c4)cc32)c1C [Example 61] | 29% | 137% |  |  |  |  |  |  |
| CCN(CC)CCNC(=O)c1c(C)[nH]c(/C=C2\C(=O)Nc3ccc(-c4ccnn4-c4ccncc4)cc32)c1C [Example 66] | -6% | 44% |  |  |  |  |  |  |
| CCN(CC)CCNC(=O)c1c(C)[nH]c(/C=C2\C(=O)Nc3ccc(-c4cnn(-c5cnccn5)c4)cc32)c1C [Example 68] | 47% | 95% |  |  |  |  |  |  |
| CCN(CC)CCNC(=O)c1c(C)[nH]c(/C=C2\C(=O)Nc3ccc(-c4cnn(-c5ncccn5)c4)cc32)c1C [Example 70] | 42% | 112% |  |  |  |  |  |  |
| CCN(CC)CCNC(=O)c1c(C)[nH]c(/C=C2\C(=O)Nc3ccc(-c4cnn(-c5ccccc5Cl)c4)cc32)c1C [Example 71] | 4% | 99% |  |  |  |  |  |  |
| CCN(CC)CCNC(=O)c1c(C)[nH]c(/C=C2\C(=O)Nc3ccc(-c4cnn(-c5cscn5)c4)cc32)c1C [Example 72] | 41% | 99% |  |  |  |  |  |  |
| CCN(CC)CCNC(=O)c1c(C)[nH]c(/C=C2\C(=O)Nc3ccc(-c4cnn(-c5ccc(S(N)(=O)=O)cc5)c4)cc32)c1C [Example 74] | 26% | 71% |  |  |  |  |  |  |
| CCN(CC)CCNC(=O)c1c(C)[nH]c(/C=C2\C(=O)Nc3ccc(-c4cnn(-c5cccnc5)c4)cc32)c1C [Example 79] | 42% | 82% |  |  |  |  |  |  |
| Cc1[nH]c(/C=C2\C(=O)Nc3ccc(-c4cnn(-c5ccccc5)c4)cc32)c(C)c1C(=O)N[C@H]1CCCNC1 [Example 88, (S,Z)-2,4-dimethyl-5-((2-oxo-5-(1-phenyl-1H-pyrazol-4-yl)indolin-3-ylidene)methyl)-N-(piperidin-3-yl)-1H-pyrrole-3-carboxamide hydrochloride] | 1.4% | 122% |  |  |  |  |  |  |
| CCN(CC)CCCNC(=O)c1c(C)[nH]c(/C=C2\C(=O)Nc3ccc(-c4cnn(-c5ccccc5)c4)cc32)c1C [Example 90] | 20% | 96% |  |  |  |  |  |  |
| CCOCCCNC(=O)c1c(C)[nH]c(/C=C2\C(=O)Nc3ccc(-c4cnn(-c5ccccc5)c4)cc32)c1C [Example 91] | -7% | 43% |  |  |  |  |  |  |
| CCN(CC)CCN(C)C(=O)c1c(C)[nH]c(/C=C2\C(=O)Nc3ccc(-c4cnn(-c5ccccc5)c4)cc32)c1C [Example 92] | 3% | 113% |  |  |  |  |  |  |
| CCN(CC)CCNC(=O)c1c(C)[nH]c(/C=C2\C(=O)Nc3ccc(-c4ccc(C(=O)O)s4)cc32)c1C [Example 209] |  |  | 4.3 µM | 8.82 µM | 2.04 µM | 2.2 µM | 1.21 µM | 2.28 µM |
| Cc1cc(C)c(/C=C2\C(=O)Nc3ccc(-c4csc(-n5ccnc5)n4)cc32)[nH]1 [Example 215] |  |  | 37.4 µM | 35 µM | 8.84 µM | 9.31 µM | 14.5 µM | 2.72 µM |
| CCN(CC)CCNC(=O)c1c(C)[nH]c(/C=C2\C(=O)Nc3cc(-c4cnc5ccccc5n4)ccc32)c1C [Example 251] |  |  | 2.24 µM | 42.6 µM | 10.9 µM | 7.07 µM | 7.45 µM | 6.97 µM |
| CCN(CC)CCNC(=O)c1c(C)[nH]c(/C=C2\C(=O)Nc3cc(-c4csc(-n5cccn5)n4)ccc32)c1C [Example 254] |  |  | 0.78 µM | 2.93 µM | 2.6 µM | 5.8 µM | 5.3 µM | 0.17 µM |
| CCN(CC)CCNC(=O)c1c(C)[nH]c(/C=C2\C(=O)Nc3cc(-c4cccc5ncccc45)ccc32)c1C [Example 258] |  |  | 2.64 µM | 8.61 µM | 2.66 µM | 2.88 µM | 4.83 µM | 0.42 µM |
| CCN(CC)CCNC(=O)c1c(C)[nH]c(/C=C2\C(=O)Nc3cc(-c4ccc(C(=O)c5ccccc5)cc4)ccc32)c1C [Example 264] |  |  | 1.46 µM | 3.16 µM | 4.11 µM | 3.65 µM | 4.46 µM | 1.63 µM |
| CCN(CC)CCNC(=O)c1c(C)[nH]c(/C=C2\C(=O)Nc3cc(-c4ccc(O)cc4C)ccc32)c1C [Example 265] |  |  | 1.54 µM | 7.55 µM | 2.53 µM | 2.76 µM | 2.14 µM | 2.17 µM |
| CCN(CC)CCNC(=O)c1c(C)[nH]c(/C=C2\C(=O)Nc3ccc(-c4ccc(C=O)cc4)cc32)c1C [Example 266] |  |  | 7.51 µM | 5.84 µM | 2.81 µM | 10.6 µM | 12.1 µM | 4.34 µM |
| CCN(CC)CCNC(=O)c1c(C)[nH]c(/C=C2\C(=O)Nc3ccc(-c4ccc(C#N)c(F)c4)cc32)c1C [Example 269] |  |  | 3.48 µM | 12 µM | 13.3 µM | 14.5 µM | 14 µM | 1.71 µM |

Further lines, results first:

| inhibition at 1 µM (human RIOK2 protein) | inhibition at 10 µM (human RIOK2 protein) | IC50 (FaDu CSC) | IC50 (A549 CSC) | IC50 (ACHN) | IC50 (A549) | IC50 (FaDu) | IC50 (ACHN CSC) | Structure (SMILES) |
| --- | --- | --- | --- | --- | --- | --- | --- | --- |
| 39% | 104% |  |  |  |  |  |  | CCN(CC)CCNC(=O)c1c(C)[nH]c(/C=C2\C(=O)Nc3ccc(-c4ccnn4-c4ccc(F)cc4)cc32)c1C [Example 57] |
| 51% | 98% |  |  |  |  |  |  | CCN(CC)CCNC(=O)c1c(C)[nH]c(/C=C2\C(=O)Nc3ccc(-c4ccnn4-c4cccc(OC)c4)cc32)c1C [Example 62] |
| 14% | 93% |  |  |  |  |  |  | CCN(CC)CCNC(=O)c1c(C)[nH]c(/C=C2\C(=O)Nc3ccc(-c4ccnn4-c4ccccn4)cc32)c1C [Example 63] |
| 18% | 87% |  |  |  |  |  |  | CCN(CC)CCNC(=O)c1c(C)[nH]c(/C=C2\C(=O)Nc3ccc(-c4ccnn4-c4ccc(Cl)c(Cl)c4)cc32)c1C [Example 65] |
| 40% | 109% |  |  |  |  |  |  | CCN(CC)CCNC(=O)c1c(C)[nH]c(/C=C2\C(=O)Nc3ccc(-c4cnn(-c5ccncn5)c4)cc32)c1C [Example 69] |
| 18% | 111% |  |  |  |  |  |  | CCN(CC)CCNC(=O)c1c(C)[nH]c(/C=C2\C(=O)Nc3ccc(-c4cnn(-c5nccs5)c4)cc32)c1C [Example 73] |
| 22% | 130% |  |  |  |  |  |  | Cc1[nH]c(/C=C2\C(=O)Nc3ccc(-c4cnn(-c5ccccc5)c4)cc32)c(C)c1C(=O)N[C@@H]1CCCNC1 [Example 89] |
|  |  | 5.33 µM | 7.28 µM | 8.73 µM | 6.45 µM | 4.43 µM | 3.1 µM | Cc1cc(C)c(/C=C2\C(=O)Nc3ccc(-c4n[nH]c5ccccc45)cc32)[nH]1 [Example 231] |
|  |  | 14.4 µM | 36.8 µM | 14.9 µM | 12.5 µM | 14.7 µM | 21.1 µM | Cc1cc(C)c(/C=C2\C(=O)Nc3ccc(-c4ccc(O)cc4C)cc32)[nH]1 [Example 261] |
|  |  | 1.4 µM | 4.61 µM | 2.26 µM | 1.74 µM | 2.31 µM | 1.42 µM | CCN(CC)CCNC(=O)c1c(C)[nH]c(/C=C2\C(=O)Nc3ccc(-c4ccc(OC)cc4C)cc32)c1C [Example 267] |
|  |  | 15.5 µM | 29.2 µM | 18.9 µM | 19.7 µM | 25.4 µM | 20.8 µM | CCN(CC)CCNC(=O)c1c(C)[nH]c(/C=C2\C(=O)Nc3ccc(-c4ccc5c(c4)CC(=O)N5)cc32)c1C [Example 270] |

Source: US20190241569A1, “3-(ARYL OR HETEROARYL) METHYLENEINDOLIN-2-ONE DERIVATIVES AS INHIBITORS OF CANCER STEM CELL PATHWAY KINASES FOR THE TREATMENT OF CANCER” (Boston Biomedical, Inc., priority 2013, published 2019)
